Measurements reported in PMC3714282, “Pharmacometabolomics of Response to Sertraline and to Placebo in Major Depressive Disorder – Possible Role for Methoxyindole Pathway” (PLoS ONE, 2013).

System: serum metabolites (tryptophan, tyrosine, purine pathways, antioxidants)
Test: LCECA metabolomic profiling of serum: change from baseline at week 1 and week 4 (all, responders, non-responders)
Format: in vivo, human
Text: Study participants were outpatients, 18–65 years of age, from various clinical sites across the United States. […] A complete description of the inclusion and exclusion used in this study can be found in Table S1. The study protocol was developed in accordance with the principles of the Declaration of Helsinki. All patients provided written informed consent. The study was sponsored and monitored by Pfizer, Inc. Each site's institutional review board approved and oversaw the study. The primary outcome measure was the HAMD17, used to assess depressive symptom severity. Measures were gathered at baseline, and weeks 1 and 4 of treatment at the patient's visits. Serum samples were collected using standard protocol at baseline, week 1 and week 4 of treatment at the clinic visits. Whole blood was collected in serum collection tubes and inverted 5–8 times. Serum samples were allowed to clot at room temperature for 60 minutes and then centrifuged at 1,300×g for 15 minutes. Following centrifugation supernatant was frozen at −80°C until analysis.
Samples were analyzed using a liquid chromatography electrochemical array (LCECA) platform that has been extensively validated and used in our prior studies in neurodegenerative and psychiatric disorders [30]–[34]. The method includes multiple compounds from the tyrosine, tryptophan, sulfur amino acids and purine pathways, and markers of oxidative stress and protection (for the list of metabolites and abbreviations see Table 1). Levels of 5-Methoxytryptamine (5-MTPM) were measured using a gas chromatography time-of-flight-mass spectrometry (GCTOF-MS) platform. Samples were prepared for analysis as previously described. During the sample preparation, pools were created from equal volumes of subaliquots of all samples. Concentrations of metabolites in the individual samples were expressed as a percentage of the concentration of those metabolites in the averaged pool.
Data preprocessing: We first removed the metabolites that have more than 40% missing values. […] Principal components analysis (PCA; SIMCA-P+12.0) was used to identify outliers. The analysis was performed for each time point. […] Subjects with ≥3 standard deviations away from the center of data cloud within two principal components (PC's) scores scatter plot were considered outliers and were removed from further analysis.
These analyses were conducted separately for the sertraline and placebo groups. Between groups t-tests were used to compare baseline to one week and baseline to four week change scores between the sertraline and placebo groups.
Signatures of response to sertraline and placebo were identified by using paired t-tests to compare week 4 metabolite levels to baseline metabolite levels in the responders and non-responders to therapy. […] These analyses were also performed to evaluate changes in ratios of individual metabolites within (e.g., 5-HT/5-HTP) and between branches of tryptophan pathway (e.g., KYN/MEL).

[1] = after four week of treatment, non-responders
[2] = after four week of treatment, responders
[3] = after one week of treatment, non-responders
[4] = serum, four weeks, non-responders to sertraline
[5] = serum, four weeks, poor response to sertraline
[6] = serum, four weeks, responders to sertraline
[7] = serum, log-transformed concentration, after four weeks, sertraline group

SMILES: CN[C@H]1CC[C@@H](c2ccc(Cl)c(Cl)c2)c2ccccc21 [Sertraline, sertraline]
- Change of 3-OHKY (average change of log-transformed concentration) [1]: 0.013
- Change of 3-OMD (average change of log-transformed concentration) [1]: -0.048
- Change of 4-HBAC (average change of log-transformed concentration) [1]: 0.19
- Change of 4-HPAC (average change of log-transformed concentration) [1]: 0.14
- Change of 4-HPLA (average change of log-transformed concentration) [1]: 0.11
- Change of 5-HIAA (average change of log-transformed concentration) [1]: -0.077
- Change of 5-HT (average change of log-transformed concentration) [1]: -1.6
- Change of 5-HTP (average change of log-transformed concentration) [1]: 0.24
- Change of 5-MTPOL (average change of log-transformed concentration) [1]: 0.093
- Change of 7-MXAN (average change of log-transformed concentration) [1]: 0.56
- Change of ATOCO (average change of log-transformed concentration) [1]: 0.47
- Change of CYS (average change of log-transformed concentration) [1]: -0.014
- Change of DIOHMAL (average change of log-transformed concentration) [1]: 0.25
- Change of DOPAC (average change of log-transformed concentration) [1]: -0.099
- Change of DTOCO (average change of log-transformed concentration) [1]: 0.52
- Change of GR (average change of log-transformed concentration) [1]: 0.31
- Change of GRMP (average change of log-transformed concentration) [1]: -0.16
- Change of GSH (average change of log-transformed concentration) [1]: -0.084
- Change of HGA (average change of log-transformed concentration) [1]: 0.63
- Change of HVA (average change of log-transformed concentration) [1]: 0.085
- Change of HX (average change of log-transformed concentration) [1]: 0.014
- Change of KYN (average change of log-transformed concentration) [1]: 0.066
- Change of LD (average change of log-transformed concentration) [1]: 0.35
- Change of MEL (average change of log-transformed concentration) [1]: 0.26
- Change of METH (average change of log-transformed concentration) [1]: 0.3
- Change of MHPG (average change of log-transformed concentration) [1]: -0.28
- Change of NA-5-HT (average change of log-transformed concentration) [1]: 0.0044
- Change of TRP (average change of log-transformed concentration) [1]: 0.11
- Change of TRPOL (average change of log-transformed concentration) [1]: 0.053
- Change of TYR (average change of log-transformed concentration) [1]: -0.11
- Change of UA (average change of log-transformed concentration) [1]: -0.095
- Change of VMA (average change of log-transformed concentration) [1]: 0.058
- Change of XAN (average change of log-transformed concentration) [1]: -0.19
- Change of XANTH (average change of log-transformed concentration) [1]: 0.098
- Change of 3-OHKY (average change of log-transformed concentration) [2]: 0.071
- Change of 3-OMD (average change of log-transformed concentration) [2]: 0.19
- Change of 4-HBAC (average change of log-transformed concentration) [2]: 0.07
- Change of 4-HPAC (average change of log-transformed concentration) [2]: 0.37
- Change of 4-HPLA (average change of log-transformed concentration) [2]: 0.14
- Change of 5-HIAA (average change of log-transformed concentration) [2]: -0.046
- Change of 5-HT (average change of log-transformed concentration) [2]: -2.2
- Change of 5-HTP (average change of log-transformed concentration) [2]: 0.014
- Change of 5-MTPOL (average change of log-transformed concentration) [2]: 0.17
- Change of 7-MXAN (average change of log-transformed concentration) [2]: -0.32
- Change of ATOCO (average change of log-transformed concentration) [2]: 0.76
- Change of CYS (average change of log-transformed concentration) [2]: 0.0094
- Change of DIOHMAL (average change of log-transformed concentration) [2]: 0.47
- Change of DOPAC (average change of log-transformed concentration) [2]: 0.058
- Change of DTOCO (average change of log-transformed concentration) [2]: 0.88
- Change of GR (average change of log-transformed concentration) [2]: -0.26
- Change of GRMP (average change of log-transformed concentration) [2]: 0.23
- Change of GSH (average change of log-transformed concentration) [2]: 0.096
- Change of HGA (average change of log-transformed concentration) [2]: 0.21
- Change of HVA (average change of log-transformed concentration) [2]: 0.12
- Change of HX (average change of log-transformed concentration) [2]: -0.022
- Change of KYN (average change of log-transformed concentration) [2]: 0.027
- Change of LD (average change of log-transformed concentration) [2]: -0.069
- Change of MEL (average change of log-transformed concentration) [2]: 0.68
- Change of METH (average change of log-transformed concentration) [2]: 0.12
- Change of MHPG (average change of log-transformed concentration) [2]: -0.16
- Change of NA-5-HT (average change of log-transformed concentration) [2]: 0.071
- Change of TRP (average change of log-transformed concentration) [2]: 0.041
- Change of TRPOL (average change of log-transformed concentration) [2]: 0.068
- Change of TYR (average change of log-transformed concentration) [2]: 0.14
- Change of UA (average change of log-transformed concentration) [2]: -0.027
- Change of VMA (average change of log-transformed concentration) [2]: -0.077
- Change of XAN (average change of log-transformed concentration) [2]: -0.14
- Change of XANTH (average change of log-transformed concentration) [2]: 0.0046
- Change of 3-OHKY (average change of log-transformed concentration) [3]: -0.11
- Change of 3-OMD (average change of log-transformed concentration) [3]: -0.082
- Change of 4-HBAC (average change of log-transformed concentration) [3]: -0.44
- Change of 4-HPAC (average change of log-transformed concentration) [3]: 0.18
- Change of 4-HPLA (average change of log-transformed concentration) [3]: 0.055
- Change of 5-HIAA (average change of log-transformed concentration) [3]: -0.19
- Change of 5-HT (average change of log-transformed concentration) [3]: -0.72
- Change of 5-HTP (average change of log-transformed concentration) [3]: -0.14
- Change of 5-MTPOL (average change of log-transformed concentration) [3]: -0.027
- Change of 7-MXAN (average change of log-transformed concentration) [3]: 0.16
- Change of ATOCO (average change of log-transformed concentration) [3]: 0.084
- Change of CYS (average change of log-transformed concentration) [3]: -0.056
- Change of DIOHMAL (average change of log-transformed concentration) [3]: 0.17
- Change of DOPAC (average change of log-transformed concentration) [3]: -0.18
- Change of DTOCO (average change of log-transformed concentration) [3]: 0.024
- Change of GR (average change of log-transformed concentration) [3]: -0.47
- Change of GRMP (average change of log-transformed concentration) [3]: -0.012
- Change of GSH (average change of log-transformed concentration) [3]: -0.0084
- Change of HGA (average change of log-transformed concentration) [3]: 0.34
- Change of HVA (average change of log-transformed concentration) [3]: 0.0025
- Change of HX (average change of log-transformed concentration) [3]: -0.066
- Change of KYN (average change of log-transformed concentration) [3]: -0.11
- Change of LD (average change of log-transformed concentration) [3]: 0.053
- Change of MEL (average change of log-transformed concentration) [3]: 0.3
- Change of METH (average change of log-transformed concentration) [3]: 0.16
- Change of MHPG (average change of log-transformed concentration) [3]: -0.072
- Change of NA-5-HT (average change of log-transformed concentration) [3]: 0.027
- Change of TRP (average change of log-transformed concentration) [3]: -0.022
- Change of TRPOL (average change of log-transformed concentration) [3]: 0.0024
- Change of TYR (average change of log-transformed concentration) [3]: -0.073
- Change of UA (average change of log-transformed concentration) [3]: -0.095
- Change of VMA (average change of log-transformed concentration) [3]: 0.12
- Change of XAN (average change of log-transformed concentration) [3]: -0.18
- Change of XANTH (average change of log-transformed concentration) [3]: 0.11
- Change in 5-HT levels [4]: significantly reduced
- Change in 5-MTPOL levels [4]: not significantly changed
- Change in DIOHMAL levels [4]: significantly increased
- Change in MEL levels [4]: not significantly changed
- Change in HGA levels [5]: Significant increases
- Change in LD levels [5]: Significant increases
- Change in 4-HPAC levels [6]: significantly increased
- Change in 5-HT levels [6]: significant decrease
- Change in 5-MTPOL levels [6]: significant increases
- Change in DIOHMAL levels [6]: significantly increased
- Change in MEL levels [6]: significant increases
- Change 3-OHKY [7]: 0.044
- Change 3-OMD [7]: 0.079
- Change 4-HBAC [7]: 0.12
- Change 4-HPAC [7]: 0.26
- Change 4-HPLA [7]: 0.13
- Change 5-HIAA [7]: −0.06
